≈ marks a conversion by molar mass, not a printed value.
Assays:
[1] = Aging / storage stability: relative decomposition of the sulfonylurea by HPLC; format: physicochemical; details: 10080 min
Description: Into 7.8 g of epoxidized soybean oil (ESBO) was added with stirring: 1.18 g methyl 3-[[[[(4-methoxy-6-methyl-1,3,5-triazin-2-yl)amino]carbonyl]amino]sulfonyl]-2-thiophenecarboxylate tech (98.1%), 1.31 g of anhydrous diisobutylphenoxy ethoxyethyl dimethylbenzyl ammonium chloride in H2 O (Hyamine 1622™), 0.11 g Ca(OH)2, and 0.03 g calcium acetate.
In a vial was vortexed the following: 0.214 g methyl 2-[[[[[(4,6-dimethoxy-2-pyrimidinyl)amino]carbonyl]amino]sulfonyl]methyl]benzoate (98.3%),0.192 g of a 25% aqueous solution of tetramethyl ammonium hydroxide, and 4.32 g of water to produce the sulfonylurea quaternary salt.

[2] = Solubility in epoxidized soybean oil, methyl caprylate/caprate, and cottonseed oil
[3] = Hydrolytic stability in aqueous solution by HPLC (storage at room temperature for 36 days); format: physicochemical; details: 100 ppm in deionized water, after 36 days, read-out: percentage of material present after storage
Description: Aqueous solutions containing 100 ppm of nicosulfuron or its benzethonium salt were prepared with deionized water and stored at room temperature for 36 days. The solutions were analyzed by HPLC with an Inersil ODS2 column and an ultraviolet detector at a wavelength of 254 nm. The mobile phase through the column consisted of acetonitrile and water at a 1:1 volume ratio. The flow rate through the column was 1 ml/min.

[4] = Aging in deionized water: relative degradation of the sulfonylurea by HPLC; format: physicochemical; details: saturated in deionized water (500 ppm), 25° C. for 30 days
Description: Deionized water (5 g) was saturated with 2-[[[[(4,6-dimethoxy-2-pyrimidinyl)amino]carbonyl]amino]sulfonyl]-N,N-dimethyl-3-pyridinecarboxamide tech (500 ppm) and aged at 25° C. for 30 days.

[5] = physchem; details: water, pH 7, water
[6] = tested on: Aspergillus niger; details: 6 days, Czapek solution agar
Excerpt: A. niger ATCC #16404 was contacted with each sulfonylurea salt for 6 days in a Czapek solution agar.

[7] = tested on: Setaria faberi (Giant Foxtail); assay: Herbicidal efficacy against giant foxtail (green fresh weight, percent control); format: in vivo
Description: (§1) Aqueous solutions of the benzethonium salts of each sulfonylurea were prepared with and without 0.25% by weight of the nonionic surfactant polyoxyethylene (20) monolaurate (Tween 20®, trademark of ICI), based upon 100% total weight of aqueous solution. The aqueous solutions were sprayed onto giant foxtail (Setaria faberi) and large crabgrass (Digitaria sanguinalis) with a spray volume of 187 L/ha (liters/hectare). The active amount of each salt applied in grams/hectare (g/ha) is shown in Table 2 with respect to giant foxtail and Table 3 with respect to large crabgrass. The plants were evaluated two weeks after treatment with the aqueous solution by obtaining their green fresh weights and comparing these weights to an untreated control treatment to compute percent control values. Six replications were made of each treatment. All data were analyzed using a Fisher's Least Significant Difference (L.S.D.) Test at the 0.05 level.
(§2) Aqueous solutions were prepared with 75% concentrated, water-dispersible granules (75 DF) of nicosulfuron and rimsulfuron available as Accent® herbicide and Titus® herbicide (trademarks of DuPont) with or without 0.25% by weight of Tween 20®. These aqueous solutions were tested against giant foxtail (Setaria faberi) and large crabgrass (Digitaria sanguinalis) as described in Example 4.

[8] = tested on: Digitaria sanguinalis (Large Crabgrass); assay: Herbicidal efficacy against large crabgrass (green fresh weight, percent control); format: in vivo
Description: as §1, §2

CCCCCCCCCCCC[N+](CCCCCCCCCCCC)(CCCCCCCCCCCC)CCCCCCCCCCCC.COc1cc(OC)nc(NC(=O)[N-]S(=O)(=O)c2c(-c3nnn(C)n3)cnn2C)n1 [B]
relative degradation ([1]; 50% solutions in epoxidized soybean oil, methyl caprylate/caprate, and cottonseed oil, 1 week at 54° C.): 20-45%
solubility in organic solvents [2]: more than 50%

COc1cc(OC)nc(NC(=O)NS(=O)(=O)c2ncccc2C(=O)N(C)C)n1 [nicosulfuron, 2-[[[[(4,6-dimethoxy-2-pyrimidinyl)amino]carbonyl]amino]suflonyl]-N,N-dimethyl-3-pyridinecarboxamide]
remaining at 864 h [3]: 7%
degraded at 720 h [4]: 90%
solubility [5]: 12 mg/mL (≈ 29.2 mM)

CC(C)(C)CC(C)(C)c1ccc(OCCOCC[N+](C)(C)Cc2ccccc2)cc1.COc1cc(OC)nc(NC(=O)[N-]S(=O)(=O)c2ncccc2C(=O)N(C)C)n1 [Benzethonium salt of nicosulfuron]
Minimum Effective Concentration [6]: 100-300 ppm
% Control ([7]; 6 g/ha, 0.25% Tween 20, two weeks after treatment): 97%
% Control ([7]; 6 g/ha, no nonionic surfactant, two weeks after treatment): 39%
% Control ([8]; 20 g/ha, 0.25% Tween 20, two weeks after treatment): 94%
% Control ([8]; 20 g/ha, no nonionic surfactant, two weeks after treatment): 34%

COC(=O)c1ccccc1CS(=O)(=O)[N-]C(=O)Nc1nc(OC)cc(OC)n1.C[N+](C)(C)C [C]
degradation of the sulfonylurea ([1]; aqueous solution, one week at 54° C.): 52%

CC(C)(C)CC(C)(C)c1ccc(OCCOCC[N+](C)(C)Cc2ccccc2)cc1.COC(=O)c1ccccc1S(=O)(=O)[N-]C(=O)Nc1nc(C)nc(OC)n1 [Benzethonium salt of metsulfuron-methyl]
Minimum Effective Concentration [6]: 300-1000 ppm

CC(C)(C)CC(C)(C)c1ccc(OCCOCC[N+](C)(C)Cc2ccccc2)cc1.CCS(=O)(=O)c1cccnc1S(=O)(=O)[N-]C(=O)Nc1nc(OC)cc(OC)n1 [Benzethonium salt of rimsulfuron]
Minimum Effective Concentration [6]: 100-300 ppm
% Control ([7]; 3 g/ha, 0.25% Tween 20, two weeks after treatment): 95%
% Control ([7]; 3 g/ha, no nonionic surfactant, two weeks after treatment): 25%
% Control ([8]; 10 g/ha, 0.25% Tween 20, two weeks after treatment): 94%
% Control ([8]; 10 g/ha, no nonionic surfactant, two weeks after treatment): 58%

Source: patent publication US6225260A, “Quaternary ammonium salts of a sulfonylurea” (Lonza Inc., priority 1999, dated 2001)
